In general, pIC50 refers to the negative decadic logarithm of the IC50, by convention in mol/L. For orientation: Cmax means the peak of the concentration-time curve. A word on the bioavailability: it is the share of a dose that reaches the circulation, judged against a reference dose that is usually intravenous. Low values mean poor availability, high ones good availability. Broadly, the AUC(0-t) is the area under the concentration-time curve up to a stated or last time point. Low values mean low exposure, high ones high exposure.

The target of series [1] is T1, AXL (Homo sapiens, UniProt P30530).
T1 sequence (P30530 26-894): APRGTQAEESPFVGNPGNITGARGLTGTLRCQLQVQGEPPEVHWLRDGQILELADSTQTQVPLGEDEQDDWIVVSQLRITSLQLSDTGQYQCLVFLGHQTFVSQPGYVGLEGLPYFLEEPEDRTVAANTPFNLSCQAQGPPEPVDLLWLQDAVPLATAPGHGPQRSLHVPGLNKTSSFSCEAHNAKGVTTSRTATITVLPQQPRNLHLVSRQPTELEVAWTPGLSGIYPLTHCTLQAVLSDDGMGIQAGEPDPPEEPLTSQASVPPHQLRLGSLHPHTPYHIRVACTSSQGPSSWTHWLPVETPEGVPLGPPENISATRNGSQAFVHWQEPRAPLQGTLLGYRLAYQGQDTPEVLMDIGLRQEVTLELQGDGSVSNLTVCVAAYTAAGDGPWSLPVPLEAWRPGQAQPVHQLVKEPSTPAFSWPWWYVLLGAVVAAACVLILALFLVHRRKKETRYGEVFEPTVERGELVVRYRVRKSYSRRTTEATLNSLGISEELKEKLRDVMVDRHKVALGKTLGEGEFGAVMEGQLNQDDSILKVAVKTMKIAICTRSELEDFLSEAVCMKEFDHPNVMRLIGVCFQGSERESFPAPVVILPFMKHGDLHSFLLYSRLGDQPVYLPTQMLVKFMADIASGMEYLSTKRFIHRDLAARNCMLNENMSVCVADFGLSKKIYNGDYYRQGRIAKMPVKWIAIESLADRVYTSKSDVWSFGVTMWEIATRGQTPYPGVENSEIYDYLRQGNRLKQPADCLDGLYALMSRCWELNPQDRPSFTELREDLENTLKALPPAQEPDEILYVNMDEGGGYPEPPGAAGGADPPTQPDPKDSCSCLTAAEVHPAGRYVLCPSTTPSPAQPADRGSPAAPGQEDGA
Description: AXL enzyme inhibition (recombinant enzyme). The class given is biochemical.

The nature of the next series: PK in rat. The settings on record: in vivo.
Series [2] is described as follows: Tolerability / body weight in the xenograft studies. Type of series: in vivo. The following applies: in all of the above studies.
For series [3], the target named is T1, AXL. Description: Inhibition of AXL phosphorylation in NCI-H1299 NSCL xenografts (PK/PD). Type of series: in vivo, mice. The arrangement: endogenous in cells; host or cells: NCI-H1299 human NSCLC cells (culture; subcutaneous xenograft in mice). The source says:
Female Nu/Nu mice (6-8 weeks, Charles River Laboratory, Wilmington, Mass.) were maintained 5/cage in microisolator units on a standard laboratory diet (Teklad Labchow, Harlan Teklad, Madison, Wis.). Animals were housed under humidity- and temperature-controlled conditions and the light/dark cycle was set at 12-hour intervals. Mice were quarantined at least 1 week prior to experimental manipulation. Experiments were approved (Protocol 03-023) by the Institutional Animal Care and Use Committee of Teva Pharmaceuticals Inc
Briefly, NCI-H1299 NSCL cells (for AXL studies) or GTL-16 gastric carcinoma cells (for c-Met studies) were collected and resuspended in DMEM medium at density of 5×10^7/mL and an aliquot (100 μL) of the cell suspension (5×10^6 cells) was inoculated subcutaneously to the left flank of each mouse with a 23 g needle. […] At indicated time points post dosing, the mice (3 mice at each time point) were sacrificed by decapitation and blood was collected in 1.5 mL microcentrifuge tubes containing 20 μL of heparin sodium (10,000 unit/mL in H2O, Cat^#0210193191, MP Biomedical, Solon, Ohio) and left on ice briefly. The tubes were centrifuged at 20,817×g (Eppendorf Centrifuge 5417R with a FA45-30-11 rotor) for 8 minutes at 4° C. and the plasma was collected and transferred to 1.5 mL microfuge tubes, which were then stored at −80° C. The tumors were excised and weighed, cut into small pieces with a scalpel and placed into a round-bottom 14 mL tube (Cat^#352059, Becton Dickinson, Franklin, N.J.) on ice. Two volumes of FRAK lysis buffer without detergent [10 mM Tris, pH 7.5, 50 mM sodium chloride, 20 mM sodium fluoride, 2 mM sodium pyrophosphate, 0.1% BSA, plus freshly prepared 1 mM activated sodium vanadate, 4 mM DTT, 1 mM PMSF and the protease inhibitor cocktail III (1:100 dilution, Cat^#539134, Calbiochem, La Jolla, Calif.)] were added to 1 volume of tumor (eg, 500 μL FRAK lysis buffer were added to 250 mg tissue). […] The compound levels in both plasma and tumor lysates were measured by LC-MS/MS. […]

[4] abbreviates: intravenous, 1 mg/kg i.v. and 3 mg/kg p.o.

pIC50: −log10 of the molar value. Some results are limits rather than exact numbers.

Take `COc1cc2nccc(Oc3ccc(NC(=O)c4cn(C(C)C)c(=O)n(-c5ccc(F)cc5)c4=O)cc3F)c2cc1OC` [CEP-40783, 3-(4-Fluorophenyl)-1-isopropyl-2,4-dioxo-1,2,3,4-tetrahydropyrimidine-5-carboxylic acid [4-(6,7-dimethoxyquinolin-4-yloxy)-3-fluorophenyl]-amide]: on AXL [1], the pIC50 is 8.15. This compound also showed a Cmax in “PK in rat” (1 mg/kg i.v. and 3 mg/kg p.o.) of 593 ng/mL. In “PK in rat” (setting [4]), the Vd stood at 2.6 L/kg and the clearance amounted to 1.4 mL/min/kg. Also, the half-life in the series “PK in rat” (iv, 1 mg/kg i.v., read-out: t1/2 i.v. (converted)) was 21.5 h. Besides, the bioavailability in the series “PK in rat” (oral, 1 mg/kg i.v. and 3 mg/kg p.o.) turned out to be 57%. Further, the AUC(0-t) in “PK in rat” (po, 3 mg/kg p.o.) was determined as 16300 ng·h/mL. For the same compound, the “tolerability, body weight” value in series [2] was “well tolerated with no compound-related body weight loss”. In addition, the “inhibition of AXL phosphorylation (target inhibition)” value on AXL [3] (0.3 mg/kg, 6 h post dose) is given as about 80%. For the same compound, at AXL [3] (1 mg/kg, between 6-24 h), the “inhibition of AXL phosphorylation (target inhibition)” value is given as over 90%. At AXL [3] (10 mg/kg po, up to 48 h post dosing), the “inhibition of AXL phosphorylation” value was “complete AXL inhibition”.

These data come from US10028956B2, “Methods of treating various cancers using an AXL/cMET inhibitor in combination with other agents” (Ignyta, Inc., priority 2013, dated 2018).
